Molecules are shown by their SMILES.

For experiment [1], the target named is T1, Met kinase (Homo sapiens, UniProt P08581). The experiment can be described thus: Met kinase inhibition (cell). The class given is cell-based.
In experiment [2] the target is T1, Met kinase. The experiment is described as follows: Met kinase inhibition, flashplate method (enzyme). Details: 6His (N); purchased Upstate 14-526; host or cells: Sf21 insect cells (S. frugiperda), baculovirus. The class given is biochemical. The text has this: According to the manufacturer's data (Met, active, Upstate, catalogue No. 14-526), Met kinase is expressed for the purposes of protein production in insect cells (Sf21; S. frugiperda) and subsequent affinity-chromatographic purification as “N-terminal 6His-tagged” recombinant human protein in a baculovirus expression vector.
The test plates used are 96-well Flashplate® microtitre plates from Perkin Elmer (Cat. No. SMP200). The components of the kinase reaction described below are pipetted into the assay plate. The Met kinase and the substrate poly Ala-Glu-Lys-Tyr, (pAGLT, 6:2:5:1), are incubated for 3 hrs at room temperature with radioactively labelled ^33P-ATP in the presence and absence of test substances in a total volume of 100 μl. The reaction is terminated using 150 μl of a 60 mM EDTA solution. After incubation for a further 30 min at room temperature, the supernatants are filtered off with suction, and the wells are washed three times with 200 μl of 0.9% NaCl solution each time. The measurement of the bound radioactivity is carried out by means of a scintillation measuring instrument (Topcount NXT, Perkin-Elmer).
The full value used is the inhibitor-free kinase reaction. This should be approximately in the range 6000-9000 cpm. The pharmacological zero value used is staurosporin in a final concentration of 0.1 mM. The inhibitory values (IC50) are determined using the RS1_MTS program.
Kinase reaction conditions per well:
10 μl of substance to be tested in assay buffer with 10% of DMSO
10 μl of ATP (final concentration 1 μM cold, 0.35 μCi of ^33P-ATP)
50 μl of Met kinase/substrate mixture in assay buffer;
• (10 ng of enzyme/well, 50 ng of pAGLT/well) • Solutions used: • Assay buffer: • 50 mM HEPES • 3 mM magnesium chloride • 3 μM sodium orthovanadate • 3 mM manganese(II) chloride • 1 mM dithiothreitol (DTT) • pH=7.5 (to be set using sodium hydroxide) • Stop solution: • 60 mM Titriplex III (EDTA) • ^33P-ATP: Perkin-Elmer; • Met kinase: Upstate, Cat. No. 14-526, Stock 1 μg/10 μl; spec. activity 954 U/mg; • Poly-Ala-Glu-Lys-Tyr, 6:2:5:1: Sigma Cat. No. P1152 In-Vivo Tests

T1 sequence (P08581 25-1390): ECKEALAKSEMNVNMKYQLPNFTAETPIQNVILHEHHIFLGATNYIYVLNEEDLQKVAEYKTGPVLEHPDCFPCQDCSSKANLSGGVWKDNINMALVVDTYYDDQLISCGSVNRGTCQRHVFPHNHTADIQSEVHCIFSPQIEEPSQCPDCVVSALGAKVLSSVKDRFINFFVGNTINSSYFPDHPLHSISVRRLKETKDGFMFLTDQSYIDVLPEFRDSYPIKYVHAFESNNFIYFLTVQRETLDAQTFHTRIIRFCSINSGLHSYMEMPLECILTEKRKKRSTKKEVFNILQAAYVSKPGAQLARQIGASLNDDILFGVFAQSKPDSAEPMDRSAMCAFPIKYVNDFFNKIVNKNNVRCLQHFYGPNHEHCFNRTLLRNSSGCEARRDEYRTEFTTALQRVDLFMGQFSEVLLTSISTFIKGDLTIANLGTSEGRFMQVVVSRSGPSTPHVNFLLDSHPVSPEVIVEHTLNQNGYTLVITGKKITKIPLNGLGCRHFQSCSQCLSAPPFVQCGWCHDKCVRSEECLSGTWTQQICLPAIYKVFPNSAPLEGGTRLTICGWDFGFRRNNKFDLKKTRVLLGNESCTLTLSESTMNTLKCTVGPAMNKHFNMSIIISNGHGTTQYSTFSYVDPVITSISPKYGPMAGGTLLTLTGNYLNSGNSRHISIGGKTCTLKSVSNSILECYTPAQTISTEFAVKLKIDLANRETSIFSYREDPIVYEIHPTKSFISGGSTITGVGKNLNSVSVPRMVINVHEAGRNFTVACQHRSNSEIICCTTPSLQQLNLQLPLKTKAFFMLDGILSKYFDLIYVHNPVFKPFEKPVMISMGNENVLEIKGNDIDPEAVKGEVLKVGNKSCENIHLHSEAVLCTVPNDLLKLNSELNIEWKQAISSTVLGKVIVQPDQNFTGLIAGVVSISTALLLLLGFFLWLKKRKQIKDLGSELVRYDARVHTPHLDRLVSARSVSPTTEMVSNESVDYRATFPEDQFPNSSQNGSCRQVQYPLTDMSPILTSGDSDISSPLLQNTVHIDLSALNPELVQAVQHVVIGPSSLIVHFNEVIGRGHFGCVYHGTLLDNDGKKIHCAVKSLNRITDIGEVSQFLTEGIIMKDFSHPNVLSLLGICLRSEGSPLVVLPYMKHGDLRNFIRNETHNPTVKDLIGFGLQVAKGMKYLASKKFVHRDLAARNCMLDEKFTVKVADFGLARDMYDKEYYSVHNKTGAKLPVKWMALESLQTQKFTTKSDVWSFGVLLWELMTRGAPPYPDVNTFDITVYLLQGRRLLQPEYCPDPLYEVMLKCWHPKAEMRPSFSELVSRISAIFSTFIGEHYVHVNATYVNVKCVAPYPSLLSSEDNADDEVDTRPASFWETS

One may read the IC50 as the concentration that gives 50% inhibition. A higher IC50 goes with lower potency. For the molecule `O=C(Cc1cccc(-c2ncc(-c3cnn(CCN4CCCC4)c3)cn2)c1)N1CCC(c2cc(Cl)ccc2Cl)=N1` [Compound A1, 1-[3-(2,5-dichlorophenyl)-4,5-dihydropyrazol-1-yl]-2-(3-{5-[1-(2-pyrrolidin-1-ylethyl)-1H-pyrazol-4-yl]pyrimidin-2-yl}phenyl)ethanone], the IC50 on Met kinase [1] and against Met kinase [2] was 1 to 100 nM each time.
In the case of `N#Cc1cccc(C2=NN(C(=O)Cc3cccc(-c4ncc(Br)cn4)c3)CC2)c1` [Compound A7, 3-(1-{2-[3-(5-bromopyrimidin-2-yl)phenyl]acetyl}-4,5-dihydro-1H-pyrazol-3-yl)benzonitrile], the IC50 on Met kinase [1] and at Met kinase [2] was 1 to 100 nM each time.
As for `O=C(Cc1cccc(-c2ncc(OCCN3CCOCC3)cn2)c1)N1CCC(c2cc(Cl)ccc2Cl)=N1` [Compound A8, 1-[3-(2,5-dichlorophenyl)-4,5-dihydropyrazol-1-yl]-2-{3-[5-(2-morpholin-4-ylethoxy)pyrimidin-2-yl]phenyl}ethanone], the IC50 against Met kinase [1] and at Met kinase [2] was 1 to 100 nM each time.

The record behind these values is patent US8404685B2, “Dihydropyrazole derivatives as tyrosine kinase modulators for the treatment of tumors” (Merck Patent Gesellschaft Mit Beschrankter Haftung, priority 2008, dated 2013).
